Molecular target: T1, Bcl-2 protein (Recombinant Human Bcl-2 Protein) (Homo sapiens, UniProt P10415)
T1 construct: purchased Novus NBP2-34889
Assay: Binding evaluation of mixture library compounds to Bcl-2 using AS-MS (affinity selection mass spectrometry)
Method in brief: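 Pooled library of ~1200 compounds ([…] each, final) incubated with recombinant human Bcl-2 (20 μM final) in Tris-HCl pH 7.4, NaCl, Tween-20, DTT buffer, dark, 23° C., 1 h. Bound fraction recovered by SEC spin column, organic extraction, reversed-phase LC/MS. ASMS Ratio (%) = (A−C)/B×100 versus protein-free standard and SEC blank.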

T1 sequence (P10415 whole entry): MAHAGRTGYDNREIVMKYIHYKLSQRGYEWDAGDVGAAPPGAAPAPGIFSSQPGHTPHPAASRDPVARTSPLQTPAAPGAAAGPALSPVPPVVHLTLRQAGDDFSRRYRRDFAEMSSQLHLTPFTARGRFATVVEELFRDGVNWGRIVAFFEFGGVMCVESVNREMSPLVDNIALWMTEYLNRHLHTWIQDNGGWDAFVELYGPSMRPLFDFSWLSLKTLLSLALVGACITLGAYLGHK

Row | SMILES | ASMS ratio (%) (n = 1) | ASMS ratio (%) (n = 2)
1 | CCOc1cncc(-c2cc(C(=O)N3CCN(c4ccc(C(=O)NS(=O)(=O)c5ccc(NCCSc6ccccc6)c(C(F)(F)F)c5)nn4)CC3)cc(C(C)(C)C)c2)c1 [B2R016-01, 6-[4-[3-tert-Butyl-5-(5-ethoxypyridin-3-yl)benzoyl]piperazin-1-yl]-N-[4-(2-phenylsulfanylethylamino)-3-(trifluoromethyl)phenyl]sulfonylpyridazine-3-carboxamide] | 9.1 | 2.7
2 | CCOc1cccc(-c2cc(C(=O)N3CCN(c4ccc(C(=O)NS(=O)(=O)c5ccc(NCCSc6ccccc6)c(C(F)(F)F)c5)nn4)CC3)cc(C(F)(F)F)c2)c1 [B2R017-01, 6-[4-[3-(3-ethoxyphenyl)-5-(trifluoromethyl)benzoyl]piperazin-1-yl]-N-[4-(2-phenylsulfanylethylamino)-3-(trifluoromethyl)phenyl]sulfonylpyridazine-3-carboxamide] | 32.9 | 27.2
3 | CCOc1cncc(-c2cc(C(=O)N3CCN(c4ccc(C(=O)NS(=O)(=O)c5ccc(NCCSc6ccccc6)c(C(F)(F)F)c5)nn4)CC3)cc(C(F)(F)F)c2)c1 [B2R018-01, 6-[4-[3-(5-Ethoxypyridin-3-yl)-5-(trifluoromethyl)benzoyl]piperazin-1-yl]-N-[4-(2-phenylsulfanylethylamino)-3-(trifluoromethyl)phenyl]sulfonylpyridazine-3-carboxamide] | 5.1 | 7.8
4 | CCOc1cccc(-c2cnn(-c3cc(C(=O)N4CCN(c5ccc(C(=O)NS(=O)(=O)c6ccc(NCCSc7ccccc7)c(C(F)(F)F)c6)nn5)CC4)cc(C(F)(F)F)c3)c2)c1 [B2R021-01, 6-[4-[3-[4-(3-Ethoxyphenyl)pyrazol-1-yl]-5-(trifluoromethyl)benzoyl]piperazin-1-yl]-N-[4-(2-phenylsulfanylethylamino)-3-(trifluoromethyl)phenyl]sulfonylpyridazine-3-carboxamide] | 13.0 | 0.0
5 | CCOc1cncc(-c2cnn(-c3cc(C(=O)N4CCN(c5ccc(C(=O)NS(=O)(=O)c6ccc(NCCSc7ccccc7)c(C(F)(F)F)c6)nn5)CC4)cc(C(F)(F)F)c3)c2)c1 [B2R022-01, 6-[4-[3-[4-(5-Ethoxypyridin-3-yl)pyrazol-1-yl]-5-(trifluoromethyl)benzoyl]piperazin-1-yl]-N-[4-(2-phenylsulfanylethylamino)-3-(trifluoromethyl)phenyl]sulfonylpyridazine-3-carboxamide] | 14.5 | 15.8
6 | CCOc1cccc(-c2csc(C(=O)N3CCN(c4ccc(C(=O)NS(=O)(=O)c5ccc(NCCSc6ccccc6)c(C(F)(F)F)c5)cc4)CC3)c2)c1 [B2R023-01, 4-[4-[4-(3-Ethoxyphenyl)thiophene-2-carbonyl]piperazin-1-yl]-N-[4-(2-phenylsulfanylethylamino)-3-(trifluoromethyl)phenyl]sulfonylbenzamide] | 0.0 | −15.5
7 | CCOc1cncc(-c2csc(C(=O)N3CCN(c4ccc(C(=O)NS(=O)(=O)c5ccc(NCCSc6ccccc6)c(C(F)(F)F)c5)cc4)CC3)c2)c1 [B2R024-01, 4-[4-[4-(5-Ethoxypyridin-3-yl)thiophene-2-carbonyl]piperazin-1-yl]-N-[4-(2-phenylsulfanylethylamino)-3-(trifluoromethyl)phenyl]sulfonylbenzamide] | 0.0 | −1.2
8 | CCOc1cccc(-c2ccc(C(=O)N3CCN(c4ccc(C(=O)NS(=O)(=O)c5ccc(NCCSc6ccccc6)c(C(F)(F)F)c5)cc4)CC3)cc2C)c1 [B2R025-01, 4-[4-[4-(3-Ethoxyphenyl)-3-methylbenzoyl]piperazin-1-yl]-N-[4-(2-phenylsulfanylethylamino)-3-(trifluoromethyl)phenyl]sulfonylbenzamide] | −1.0 | −2.4
9 | CCOc1cncc(-c2ccc(C(=O)N3CCN(c4ccc(C(=O)NS(=O)(=O)c5ccc(NCCSc6ccccc6)c(C(F)(F)F)c5)cc4)CC3)cc2C)c1 [B2R026-01, 4-[4-[4-(5-Ethoxypyridin-3-yl)-3-methylbenzoyl]piperazin-1-yl]-N-[4-(2-phenylsulfanylethylamino)-3-(trifluoromethyl)phenyl]sulfonylbenzamide] | 1.7 | −4.6
10 | CCOc1cccc(-c2ccc(C(=O)N3CCN(c4ccc(C(=O)NS(=O)(=O)c5ccc(NCCSc6ccccc6)c(C(F)(F)F)c5)cc4)CC3)cc2F)c1 [B2R027-01, 4-[4-[4-(3-Ethoxyphenyl)-3-fluorobenzoyl]piperazin-1-yl]-N-[4-(2-phenylsulfanylethylamino)-3-(trifluoromethyl)phenyl]sulfonylbenzamide] | −3.7 | 1.2
11 | CCOc1cncc(-c2ccc(C(=O)N3CCN(c4ccc(C(=O)NS(=O)(=O)c5ccc(NCCSc6ccccc6)c(C(F)(F)F)c5)cc4)CC3)cc2F)c1 [B2R028-01, 4-[4-[4-(5-Ethoxypyridin-3-yl)-3-fluorobenzoyl]piperazin-1-yl]-N-[4-(2-phenylsulfanylethylamino)-3-(trifluoromethyl)phenyl]sulfonylbenzamide] | 4.1 | −0.5
12 | CCOc1cccc(C#Cc2ccccc2C(=O)N2CCN(c3ccc(C(=O)NS(=O)(=O)c4ccc(NCCSc5ccccc5)c(C(F)(F)F)c4)cc3)CC2)c1 [B2R029-01, 4-[4-[2-[2-(3-Ethoxyphenyl)ethynyl]benzoyl]piperazin-1-yl]-N-[4-(2-phenylsulfanylethylamino)-3-(trifluoromethyl)phenyl]sulfonylbenzamide] |  | 0.0
13 | CCOc1cncc(C#Cc2ccccc2C(=O)N2CCN(c3ccc(C(=O)NS(=O)(=O)c4ccc(NCCSc5ccccc5)c(C(F)(F)F)c4)cc3)CC2)c1 [B2R030-01, 4-[4-[2-[2-(5-Ethoxypyridin-3-yl)ethynyl]benzoyl]piperazin-1-yl]-N-[4-(2-phenylsulfanylethylamino)-3-(trifluoromethyl)phenyl]sulfonylbenzamide] | 0.0 | 4.8
14 | CCOc1cccc(C#Cc2cncc(C(=O)N3CCN(c4ccc(C(=O)NS(=O)(=O)c5ccc(NCCSc6ccccc6)c(C(F)(F)F)c5)cc4)CC3)c2)c1 [B2R031-01, 4-[4-[5-[2-(3-Ethoxyphenyl)ethynyl]pyridine-3-carbonyl]piperazin-1-yl]-N-[4-(2-phenylsulfanylethylamino)-3-(trifluoromethyl)phenyl]sulfonylbenzamide] | 0.0 | 4.8
15 | CCOc1cncc(C#Cc2cncc(C(=O)N3CCN(c4ccc(C(=O)NS(=O)(=O)c5ccc(NCCSc6ccccc6)c(C(F)(F)F)c5)cc4)CC3)c2)c1 [B2R032-01, 4-[4-[5-[2-(5-Ethoxypyridin-3-yl)ethynyl]pyridine-3-carbonyl]piperazin-1-yl]-N-[4-(2-phenylsulfanylethylamino)-3-(trifluoromethyl)phenyl]sulfonylbenzamide] | 6.4 | 0.0
16 | CCOc1cccc(-c2ccccc2CCC(=O)N2CCN(c3ccc(C(=O)NS(=O)(=O)c4ccc(NCCSc5ccccc5)c(C(F)(F)F)c4)cc3)CC2)c1 [B2R033-01, 4-[4-[3-[2-(3-Ethoxyphenyl)phenyl]propanoyl]piperazin-1-yl]-N-[4-(2-phenylsulfanylethylamino)-3-(trifluoromethyl)phenyl]sulfonylbenzamide] | 3.6 | −6.6
17 | CCOc1cncc(-c2ccccc2CCC(=O)N2CCN(c3ccc(C(=O)NS(=O)(=O)c4ccc(NCCSc5ccccc5)c(C(F)(F)F)c4)cc3)CC2)c1 [B2R034-01, 4-[4-[3-[2-(5-Ethoxypyridin-3-yl)phenyl]propanoyl]piperazin-1-yl]-N-[4-(2-phenylsulfanylethylamino)-3-(trifluoromethyl)phenyl]sulfonylbenzamide] | 0.1 | −1.3
18 | CCOc1cccc(-c2ccc(C(=O)N3CCN(c4ccc(C(=O)NS(=O)(=O)c5ccc(NCCSc6ccccc6)c(C(F)(F)F)c5)cc4)CC3)c3ccccc23)c1 [B2R035-01, 4-[4-[4-(3-Ethoxyphenyl)naphthalene-1-carbonyl]piperazin-1-yl]-N-[4-(2-phenylsulfanylethylamino)-3-(trifluoromethyl)phenyl]sulfonylbenzamide] | 8.3 | 0.9
19 | CCOc1cncc(-c2ccc(C(=O)N3CCN(c4ccc(C(=O)NS(=O)(=O)c5ccc(NCCSc6ccccc6)c(C(F)(F)F)c5)cc4)CC3)c3ccccc23)c1 [B2R036-01, 4-[4-[4-(5-Ethoxypyridin-3-yl)naphthalene-1-carbonyl]piperazin-1-yl]-N-[4-(2-phenylsulfanylethylamino)-3-(trifluoromethyl)phenyl]sulfonylbenzamide] | 3.2 | −0.8
20 | CCOc1cccc(-c2cc(C(=O)N3CCN(c4ccc(C(=O)NS(=O)(=O)c5ccc(NCCSc6ccccc6)c(C(F)(F)F)c5)cc4)CC3)cc(C(C)(C)C)c2)c1 [B2R037-01, 4-[4-[3-tert-Butyl-5-(3-ethoxyphenyl)benzoyl]piperazin-1-yl]-N-[4-(2-phenylsulfanylethylamino)-3-(trifluoromethyl)phenyl]sulfonylbenzamide] | 6.3 | −7.0
21 | CCOc1cncc(-c2cc(C(=O)N3CCN(c4ccc(C(=O)NS(=O)(=O)c5ccc(NCCSc6ccccc6)c(C(F)(F)F)c5)cc4)CC3)cc(C(C)(C)C)c2)c1 [B2R038-01, 4-[4-[3-tert-Butyl-5-(5-ethoxypyridin-3-yl)benzoyl]piperazin-1-yl]-N-[4-(2-phenylsulfanylethylamino)-3-(trifluoromethyl)phenyl]sulfonylbenzamide] | 7.1 | −6.0

Source: patent US20240132431A1, “METHOD FOR ALKYLATING ACIDIC FUNCTIONAL GROUP” (Chugai Seiyaku Kabushiki Kaisha, priority 2021, published 2024)
